Experimental data published in article PMC7892475, “C-Terminal Amination of a Cationic Anti-Inflammatory Peptide Improves Bioavailability and Inhibitory Activity Against LPS-Induced Inflammation” (Frontiers in Immunology, 2021).

Experiments:
RAW264.7 cells = experiment: CCK-8 cell viability assay; type: cell-based, mouse; details: RAW264.7 macrophages, CCK-8, 0 to 80 μg/ml, 24 h or 72 h, 37°C
Protocol: The viability of peptide-treated RAW264.7 cells was determined using a Cell Counting Kit-8 (CCK-8) Assay Kit (Dojindo) ([35]). RAW264.7 cells were plated in 96-well plates at a density of 3×10^4 cells/ml in 100 μl DMEM overnight. The cell culture medium was then supplemented with fresh medium containing candidate peptides in a series of concentrations, and the plates were incubated for another 24 h or 72 h. Each well was incubated with 10 μl CCK-8 solution for 4 h in the dark. Afterwards, the absorbance at 450 nm was measured using a microplate reader. Cell viability was determined by:
Cell viability (%)=(OD450sample/OD450(control))×100%

[1] = test system: LPS-induced sepsis in C57/BL6 mice; experiment: LPS-induced murine model of sepsis; type: in vivo, mouse
Protocol: Male C57/BL6 mice (6–8 weeks of age) were purchased from Charles River (Beijing, China). The mice were maintained in a specific-pathogen-free (SPF) environment at 22 ± 1°C with relative 55 ± 10% humidity during the experiments. The assays were performed in conformity with the laws and regulations for live animal treatments at China Agricultural University.
The mice were randomly distributed into three groups (n = 12 each): control, LPS (E. coli, O111:B4, Sigma-Aldrich, USA) treatment, and CTP-NH2 pretreatment followed by LPS treatment (CTP-NH2 + LPS). For the first 7 days, CTP-NH2 (10 mg/kg mouse weight) was injected intraperitoneally once daily. Meanwhile, an equal volume of sterile saline was injected into mice in the control and LPS-treated groups. On day 7, LPS (10 mg/kg mouse weight) was injected intraperitoneally into mice in the LPS and CTP-NH2 + LPS groups to establish the sepsis animal model. The control group was intraperitoneally injected with an equal volume of saline. Sixteen hours after the LPS injection, the mice were euthanized by cervical dislocation, and samples of the […] were collected for analysis.
The mouse liver tissues were fixed in 4% paraformaldehyde, embedded in paraffin and cut into 5-μm-thick sections using an RM2235 microtome (Leica, Germany). The sections were stained with hematoxylin-eosin (H&E), and a DM3000 microscope was used to acquire images. LPS-induced liver injury was evaluated according to the following four categories: […]. The liver injury score was graded on a 0- to 4-point scale: 0, no injury; 1, up to 25% injury in the field; 2, up to 50% injury in the field; 3, up to 75% injury in the field; 4, diffuse injury ([43]).
For immunohistochemical analysis, the sections were blocked with PBS containing 1% w/v BSA for 1 h at room temperature. Afterwards, the sections were incubated with anti-CD177^+ antibody (1:100; Santa, USA). Samples were washed with PBS followed by incubation with horse-radish peroxidase (HRP)-conjugated rabbit anti-goat IgG (1:100; JIR, USA) at 4°C for 1 h. Subsequently, slides were stained with 3,3’-diaminobenzidine (DAB; DAKO, USA) and then counterstained with Harris hematoxylin. Finally, the samples were dehydrated in an alcohol gradient (70-100%) and cleared in xylene. All slides were mounted in neutral balsam.
The levels of tumor necrosis factor (TNF)-α, interleukin (IL)-6, and IL-1β in cell culture supernatants and the levels of TNF-α, IL-6, and IL-1β in the serum of mice were detected using commercial ELISA kits (eBioscience, San Diego, USA) according to the manufacturer’s instructions. The levels of serum alanine amino transferase (ALT) and aspartate amino transferase (AST) were detected using commercial reagent kits (Nanjing Jiancheng Bioengineering Institute, Nanjing, China). The activity of myeloperoxidase (MPO) in the liver of mice was detected using an ELISA kit (Boster, Wuhan, China) according to the manufacturer’s instructions.

RWGRFLRKIRRFRRKDVT-NH2 [CTP-NH2, C-terminal amidated derivative peptide of CTP]
cytotoxicity (comparison in words) (RAW264.7 cells): less cytotoxicity than CTP
liver MPO activity ([1]; ELISA, 10 mg/kg i.p. pretreatment, LPS 10 mg/kg i.p., vs LPS-treated mice): significantly reduced this effect
infiltration of CD177+ neutrophils into the liver ([1]; immunohistochemistry, 10 mg/kg i.p. pretreatment, LPS 10 mg/kg i.p., vs LPS-treated group): significantly lower
serum TNF-α, IL-6 and IL-1β levels ([1]; male C57/BL6 mice, 10 mg/kg i.p. once daily 7 days (Figure 8 legend: 6 days), then LPS 10 mg/kg i.p., 16 h, ELISA, vs LPS-treated group): significantly decreased levels of TNF-α
severity of liver injury (H&E, liver injury score) ([1]; male C57/BL6 mice, 10 mg/kg i.p. once daily pretreatment, LPS 10 mg/kg i.p., score 0 to 4): attenuated
serum ALT and AST ([1]; male C57/BL6 mice, 10 mg/kg i.p. once daily pretreatment, LPS 10 mg/kg i.p., vs LPS-treated group): significantly attenuated these effects
